Drawing on US12679878B2, “CRF2 receptor agonists and their use in therapy” (SANOFI, priority 2020, dated 2026), this text covers EC50 and Emax for four molecules.

What all share (format): cell-based
The target in assay [1] is T1, human CRF2α receptor (Homo sapiens, UniProt Q13324).
T1 construct: expressed in transfected cells; host or cells: TeloHEAC
T1 sequence (Q13324 1-411): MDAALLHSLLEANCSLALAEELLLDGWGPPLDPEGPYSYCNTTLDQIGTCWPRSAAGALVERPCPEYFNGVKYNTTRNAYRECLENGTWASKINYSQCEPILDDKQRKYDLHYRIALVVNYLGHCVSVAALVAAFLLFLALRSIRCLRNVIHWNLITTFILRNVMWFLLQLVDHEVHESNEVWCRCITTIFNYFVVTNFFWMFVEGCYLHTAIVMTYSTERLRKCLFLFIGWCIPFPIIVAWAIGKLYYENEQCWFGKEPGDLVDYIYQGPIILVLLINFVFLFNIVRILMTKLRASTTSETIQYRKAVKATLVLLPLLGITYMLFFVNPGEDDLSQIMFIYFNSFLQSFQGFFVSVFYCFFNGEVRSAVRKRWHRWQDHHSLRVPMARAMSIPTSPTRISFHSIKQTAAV
Put plainly: cAMP agonism at human CRF2 α receptor in TeloHEAC cells (Example 7). The conditions noted are these: cAMP HTRF, TeloHEAC cells stably expressing human CRF2 α. A digest of the protocol: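 Thawed frozen stably transfected cells in HBSS/20 mM HEPES (0% or 0.1% HSA) plus 2 mM IBMX were exposed to compound at 2000 cells/well for 30 min at room temperature. Intracellular cAMP was read by HTRF (665/620 nm ratio) after 1 h lysis; EC50 was derived with 1000 nM urocortin 2 set as 100%.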
On the technique in general: Time-resolved FRET reads energy transfer from a long-lived donor to a nearby acceptor.

Assay [2] deals with rat CRF2R α receptor. The assay is described as follows: cAMP agonism at rat CRF2R α receptor in A7R5 rat aortic smooth muscle cells (Example 8). As to conditions: cAMP HTRF, A7R5 rat aortic smooth muscle cell line, 0% HSA. A digest of the protocol:
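Potency (EC50) is the concentration reaching half-maximal activation, with responses scaled so that 1000 nM urocortin 2 equals 100%. Intracellular cAMP was quantified by homogeneous time-resolved fluorescence at 665/620 nm, 1 h after lysis-buffer reagents. Compound stimulation lasted 30 min at room temperature on 2000 IBMX-treated (2 mM) cells per well in HEPES-buffered HBSS.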

Assay [3] concerns the target T2, CRF1R receptor (Homo sapiens, UniProt P34998).
T2 construct: host or cells: CHO-K1 clone 2
T2 sequence (P34998 24-415): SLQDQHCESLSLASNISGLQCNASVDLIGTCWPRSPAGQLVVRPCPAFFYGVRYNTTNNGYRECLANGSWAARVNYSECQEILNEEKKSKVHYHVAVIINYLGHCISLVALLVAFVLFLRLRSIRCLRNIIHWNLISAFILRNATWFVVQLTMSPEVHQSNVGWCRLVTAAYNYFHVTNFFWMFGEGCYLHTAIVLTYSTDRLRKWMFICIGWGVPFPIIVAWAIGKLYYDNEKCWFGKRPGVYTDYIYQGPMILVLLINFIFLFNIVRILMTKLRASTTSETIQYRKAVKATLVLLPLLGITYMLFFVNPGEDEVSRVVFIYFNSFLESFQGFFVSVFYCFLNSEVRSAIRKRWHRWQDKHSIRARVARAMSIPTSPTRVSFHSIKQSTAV
Put plainly: cAMP activity at anti-target CRF1R, CRF1R-overexpression CHO cell line (Example 9). As to conditions: for EC50: 0% HSA. A digest of the protocol:
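Using thawed CRF1R-overexpressing CHO cells at 2000 per well, compound is applied for 30 min at RT in HBSS/HEPES buffer with IBMX. Cellular cAMP content is determined via HTRF, and percent activity is calculated against 1000 nM UCN2 defined as 100%.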

Where [4] appears, read: 0% HSA, read-out: EC50 [nM], 0% HSA.
Setting [5] is: CRF1R-overexpression CHO cell line.
The mark [6] stands for this setting: CRF1R-overexpression CHO cell line, read-out: Emax (%).
[7] abbreviates: 0.1% HSA, read-out: EC50 [nM], 0.1% HSA.

Structures are written as SMILES. Like-named read-outs stand apart in the source and are kept apart here. Starred links: 1 amine or outer side, 2 acyl side, 3 side chain; linkers in the order of their positions; H or OH if unused. Non-standard residues stand in square brackets, D forms with d. Residues, ends and D or L forms follow the SMILES beside them. Groups on a side chain read outwards from the residue. *: point of attachment. C18 diacid = O=C(O)CCCCCCCCCCCCCCCCC(=O)*; γGlu = O=C(O)[C@H](CCC(=O)[*:2])N[*:1]; AEEA = NCCOCCOCC(=O)O; Aib = CC(C)(N)C(=O)O Where only a bound is given, the exact number is not on record here.

One may read the EC50 as the concentration that produces a half-maximal response. Broadly, the Emax is the greatest response seen or fitted, relative to the assay's reference. As to `CC[C@H](C)[C@H](N)C(=O)N[C@H](C(=O)N[C@@H](CC(C)C)C(=O)N[C@@H](CO)C(=O)N[C@@H](CC(C)C)C(=O)N[C@@H](CC(=O)O)C(=O)N[C@H](C(=O)N1CCC[C@H]1C(=O)N[C@H](C(=O)N[C@@H](CCCCN)C(=O)N[C@@H](CC(C)C)C(=O)N[C@@H](CCCCNC(=O)COCCOCCNC(=O)COCCOCCNC(=O)CC[C@H](NC(=O)CCCCCCCCCCCCCCCCC(=O)O)C(=O)O)C(=O)N[C@@H](CCC(N)=O)C(=O)N[C@H](C(=O)N[C@@H](CC(C)C)C(=O)N[C@@H](CC(C)C)C(=O)N[C@@H](CCC(=O)O)C(=O)N[C@@H](CCC(N)=O)C(=O)N[C@@H](C)C(=O)N[C@@H](CCCCN)C(=O)N[C@@H](CCC(N)=O)C(=O)N[C@@H](CCCCN)C(=O)NC(C)(C)C(=O)N[C@@H](CC(C)C)C(=O)N[C@@H](CCCNC(=N)N)C(=O)N[C@@H](C)C(=O)N[C@@H](CCC(N)=O)C(=O)N[C@@H](C)C(=O)N[C@@H](CCC(=O)O)C(=O)N[C@H](C(=O)N[C@@H](CC(N)=O)C(=O)N[C@H](C(=O)N[C@@H](CCCNC(=N)N)C(=O)N[C@H](C(=O)N[C@@H](CC(C)C)C(=O)N[C@@H](CCC(=O)O)C(=O)N[C@@H](CCCNC(=N)N)C(=O)N[C@H](C(N)=O)C(C)C)[C@@H](C)CC)C(C)C)[C@@H](C)O)[C@@H](C)CC)[C@@H](C)CC)C(C)C)C(C)C` [compound 46] (H-IVLSLDVPIKLK([AEEA-AEEA-γGlu-C18 diacid])QILLEQAKQK[Aib]LRAQAETNVRILERV-NH2; N-terminus assumed), the EC50 in assay [1] (setting [4]) is 0.52 nM; in assay [2], 8.97 nM; in assay [3] (setting [5]) it was over 1000 nM. The maximal effect (Emax) in assay [3] (setting [6]) worked out at 5.88%.
As to `CC[C@H](C)[C@H](NC(=O)[C@H](CCC(N)=O)NC(=O)[C@H](CCCCNC(=O)COCCOCCNC(=O)COCCOCCNC(=O)CC[C@H](NC(=O)CCCCCCCCCCCCCCCCC(=O)O)C(=O)O)NC(=O)[C@@H](NC(=O)[C@H](CCCCN)NC(=O)[C@@H](NC(=O)[C@@H]1CCCN1C(=O)[C@@H](NC(=O)[C@H](CC(=O)O)NC(=O)[C@H](CC(C)C)NC(=O)[C@H](CO)NC(=O)[C@H](CC(C)C)NC(=O)[C@@H](NC(=O)[C@@H](N)Cc1ccccc1)[C@@H](C)O)C(C)C)[C@@H](C)O)[C@@H](C)CC)C(=O)N[C@@H](CC(C)C)C(=O)N[C@@H](CC(C)C)C(=O)N[C@@H](CCCCN)C(=O)N[C@@H](CCC(N)=O)C(=O)N[C@@H](CCC(N)=O)C(=O)N[C@@H](CCCCN)C(=O)N[C@@H](CCC(N)=O)C(=O)N[C@@H](CCCCN)C(=O)N[C@@H](CCCCN)C(=O)N[C@@H](CCC(=O)O)C(=O)N[C@@H](CCCNC(=N)N)C(=O)N[C@@H](CCC(N)=O)C(=O)N[C@@H](CCC(N)=O)C(=O)N[C@@H](C)C(=O)N[C@@H](CCC(=O)O)C(=O)N[C@@H](CCCCN)C(=O)N[C@@H](CC(N)=O)C(=O)N[C@@H](CCCCN)C(=O)N[C@@H](CCC(N)=O)C(=O)N[C@@H](CC(C)C)C(=O)N[C@@H](CC(C)C)C(=O)N[C@@H](CCC(=O)O)C(=O)N[C@@H](CCCNC(=N)N)C(=O)N[C@H](C(N)=O)C(C)C` [compound 52] (H-FTLSLDVPTKIK([AEEA-AEEA-γGlu-C18 diacid])QILLKQQKQKKERQQAEKNKQLLERV-NH2; N-terminus assumed), the 50% effective concentration (EC50) in assay [1] (setting [4]) is 0.7 nM; in assay [1] (setting [7]) it was 45.8 nM; in assay [2], 0.76 nM; in assay [3] (setting [5]), over 1000 nM. In assay [3] (setting [6]), the Emax came out at 5.3%.
In the case of `CC[C@H](C)[C@H](NC(=O)[C@H](CCC(N)=O)NC(=O)[C@H](CCCCNC(=O)COCCOCCNC(=O)COCCOCCNC(=O)CC[C@H](NC(=O)CCCCCCCCCCCCCCCCC(=O)O)C(=O)O)NC(=O)[C@@H](NC(=O)[C@H](CCCCN)NC(=O)[C@@H](NC(=O)[C@@H]1CCCN1C(=O)[C@@H](NC(=O)[C@H](CC(=O)O)NC(=O)[C@H](CC(C)C)NC(=O)[C@H](CO)NC(=O)[C@H](CC(C)C)NC(=O)[C@@H](NC(=O)[C@@H](N)Cc1ccccc1)[C@@H](C)O)C(C)C)[C@@H](C)O)[C@@H](C)CC)C(=O)N[C@@H](CC(C)C)C(=O)N[C@@H](CC(C)C)C(=O)N[C@@H](CCCCN)C(=O)N[C@@H](CCC(N)=O)C(=O)N[C@@H](CCC(N)=O)C(=O)N[C@@H](CCCCN)C(=O)N[C@@H](CCC(N)=O)C(=O)N[C@@H](CCCCN)C(=O)N[C@@H](CCCCN)C(=O)N[C@@H](CCC(=O)O)C(=O)N[C@@H](CCCNC(=N)N)C(=O)N[C@@H](CCC(N)=O)C(=O)N[C@@H](CCC(N)=O)C(=O)N[C@@H](C)C(=O)N[C@@H](CCC(=O)O)C(=O)N[C@H](C(=O)N[C@@H](CC(N)=O)C(=O)N[C@@H](CCCCN)C(=O)N[C@@H](CCC(N)=O)C(=O)N[C@@H](CC(C)C)C(=O)N[C@@H](CC(C)C)C(=O)N[C@@H](CCC(=O)O)C(=O)N[C@@H](CCCNC(=N)N)C(=O)N[C@H](C(N)=O)C(C)C)[C@@H](C)O` [compound 53] (H-FTLSLDVPTKIK([AEEA-AEEA-γGlu-C18 diacid])QILLKQQKQKKERQQAETNKQLLERV-NH2), the EC50 is 1.01 nM in assay [1] (setting [4]), 55.1 nM in assay [1] (setting [7]), 1.32 nM in assay [2] and over 1000 nM in assay [3] (setting [5]). In addition, the Emax in assay [3] (setting [6]) was 4.14%.
Take `CC[C@H](C)[C@H](NC(=O)[C@H](CCC(N)=O)NC(=O)[C@H](CCCCNC(=O)COCCOCCNC(=O)COCCOCCNC(=O)CC[C@H](NC(=O)CCCCCCCCCCCCCCCCC(=O)O)C(=O)O)NC(=O)[C@H](CC(C)C)NC(=O)[C@H](CCCCN)NC(=O)[C@@H](NC(=O)[C@@H]1CCCN1C(=O)[C@@H](NC(=O)[C@H](CC(=O)O)NC(=O)[C@H](CC(C)C)NC(=O)[C@H](CO)NC(=O)[C@H](CC(C)C)NC(=O)[C@@H](NC(=O)[C@@H](N)Cc1ccccc1)[C@@H](C)O)C(C)C)[C@@H](C)CC)C(=O)N[C@@H](CC(C)C)C(=O)N[C@@H](CC(C)C)C(=O)N[C@@H](CCCCN)C(=O)N[C@@H](CCC(N)=O)C(=O)N[C@@H](CCC(N)=O)C(=O)N[C@@H](CCCCN)C(=O)N[C@@H](CCC(N)=O)C(=O)N[C@@H](CCCCN)C(=O)N[C@@H](CCCCN)C(=O)N[C@@H](CCC(=O)O)C(=O)N[C@@H](CCCNC(=N)N)C(=O)N[C@@H](CCC(N)=O)C(=O)N[C@@H](CCC(N)=O)C(=O)N[C@@H](C)C(=O)N[C@@H](CCC(=O)O)C(=O)N[C@H](C(=O)N[C@@H](CC(N)=O)C(=O)N[C@H](C(=O)N[C@@H](CCC(N)=O)C(=O)N[C@@H](CC(C)C)C(=O)N[C@@H](CC(C)C)C(=O)N[C@@H](CCC(=O)O)C(=O)N[C@@H](CCCNC(=N)N)C(=O)N[C@H](C(N)=O)C(C)C)C(C)C)[C@@H](C)O` [compound 54] (H-FTLSLDVPIKLK([AEEA-AEEA-γGlu-C18 diacid])QILLKQQKQKKERQQAETNVQLLERV-NH2): the EC50 in assay [1] (setting [4]) came to 0.57 nM; in assay [1] (setting [7]) it was 24.5 nM; in assay [2] it was 1.51 nM. In addition, in assay [3] (CHO), the Emax stood at 2.72%.
